Experimental data reported in ChEMBL document CHEMBL4480440, “Synthesis and radical-scavenging activity of C-methylated fisetin analogues” (Bioorg Med Chem, 2019).

How the values were obtained:
[1] = Antioxidant activity assessed as galvinoxyl radical scavenging activity by measuring second order rate constant by UV-vis spectrometric analysis; assay type: functional
[2] = Antioxidant activity assessed as galvinoxyl radical scavenging activity by measuring increase in pseudo first-order rate constant UV-vis spectrometric analysis; assay type: functional

Compound	K [1]	Activity [2]
Cc1c(-c2oc3cc(O)ccc3c(=O)c2O)ccc(O)c1O	1.55 ×10² /M/s	
Cc1cc(-c2oc3cc(O)ccc3c(=O)c2O)c(C)c(O)c1O	1.58 ×10³ /M/s	Dose-dependent effect
Cc1cc(-c2oc3cc(O)ccc3c(=O)c2O)cc(O)c1O	1.66 ×10⁵ /M/s	
O=c1c(O)c(-c2ccc(O)c(O)c2)oc2cc(O)ccc12	7.58 ×10¹ /M/s	
